Test results as given in ChEMBL document CHEMBL1158127, “Bioactive compounds from the gorgonian Briareum polyanthes. Correction of the structures of four asbestinane-type diterpenes” (J Nat Prod, 2006).
In brackets after ≈: the same amount, converted by molar mass. Activity calls are given as the source filed them. The rule behind the calls is not given here.

Assays:
[1] = tested on: Mycobacterium tuberculosis; experiment: Antituberculosis activity against Mycobacterium tuberculosis H37Rv at 128 ug/mL; format: functional
Yellow fever virus = experiment: Antiviral activity against yellow fever virus; format: functional, organism-based
[2] = tested on: Venezuelan equine encephalitis virus; experiment: Antiviral activity against Venezuelan equine encephalomyelitis virus; format: functional, organism-based
Influenza A virus = experiment: Antiviral activity against Influenza A virus H1N1; format: functional, organism-based
West Nile virus = experiment: Antiviral activity against West Nile virus; format: functional, organism-based
[3] = tested on: Respiratory syncytial virus; experiment: Antiviral activity against RSV type A; format: functional, organism-based
dengue virus type 2 = experiment: Antiviral activity against Dengue virus type 2; format: functional, organism-based
Plasmodium falciparum = experiment: Antiplasmodial activity against chloroquine-resistant Plasmodium falciparum W2; format: functional, organism-based
Influenza B virus = experiment: Antiviral activity against Influenza B virus; format: functional, organism-based
Hepatitis C virus = experiment: Antiviral activity against HCV; format: functional, organism-based; details: Hepacivirus hominis
Influenza A virus H3N2 = experiment: Antiviral activity against Influenza A virus H3N2; format: functional, organism-based
Hepatitis B virus = experiment: Antiviral activity against Hepatitis B virus; format: functional, organism-based
CCRF-CEM = experiment: Cytotoxicity against human CCRF-CEM cells; format: functional, cell-based
Human gammaherpesvirus 4 = experiment: Antiviral activity against Epstein-Barr virus; format: functional, organism-based

Row | SMILES | Activity [1] | Activity (Yellow fever virus) | Activity [2] | Activity (Influenza A virus) | Activity (West Nile virus) | Activity [3] | Activity (dengue virus type 2) | IC50 (Plasmodium falciparum) | Activity (Influenza B virus) | Activity (Hepatitis C virus) | Activity (Influenza A virus H3N2) | Activity (Hepatitis B virus) | IC50 (CCRF-CEM) | IC50 (Human gammaherpesvirus 4)
1 | C=C1CC2OC3[C@H]4C(C[C@@H](C)[C@@H](OC(C)=O)[C@@H]24)[C@@H](C)CO[C@@]3(C)CC[C@@H]1O (stereo partly drawn) | inactive | inactive | inactive | inactive | inactive | inactive | inactive | 17 µg/mL (≈ 44.9 µM) | inactive | inactive | inactive | inactive |  | 
2 | CC(=O)O[C@H]1[C@H]2C3CC(=O)CCC[C@]4(C)OC[C@H](C)C(C[C@H]1C)[C@@H]2C4O3 (stereo partly drawn) [NOR-ASBESTININ A] | inactive | inactive | inactive | inactive | inactive | inactive | inactive | 14 µg/mL (≈ 38.4 µM) | inactive | inactive | inactive | inactive |  | 
3 | CCCC(=O)O[C@]1(C)CCC2[C@@H]3C4OC(C[C@](C)(O)[C@H](O)CC[C@]4(C)OC(=O)[C@@H]2C)[C@@H]31 (stereo partly drawn) [BRIARELLIN Q] | 43% |  |  |  |  |  |  | 3 µg/mL (≈ 6.84 µM) |  |  |  |  |  | 
4 | C=C1CC2OC3[C@H]4C(C[C@@H](C)[C@@H](OC(C)=O)[C@@H]24)[C@@H](C)CO[C@@]3(C)CC[C@H]1O (stereo partly drawn) | inactive | inactive | inactive | inactive | inactive | inactive | inactive | 13 µg/mL (≈ 34.3 µM) | inactive | inactive | inactive | inactive |  | 
5 | CO[C@@H]1CC[C@]2(C)OC[C@H](C)C3C[C@@H](C)[C@@H](OC(C)=O)[C@H]4C(C[C@@]1(C)O)OC2[C@@H]34 (stereo partly drawn) |  |  |  |  |  |  |  | ≥ 50 µg/mL |  |  |  |  |  | 
6 | CCCC(=O)O[C@]1(C)CCC2[C@@H]3C(OC(CC(C)=O)[C@@H]31)[C@](C)(CCC(=O)O)OC(=O)[C@@H]2C (stereo partly drawn) |  |  |  |  |  |  |  | 20 µg/mL (≈ 44.2 µM) |  |  |  |  |  | 
7 | CO[C@@H]1CC[C@]2(C)OC[C@H](C)C3C[C@@H](C)[C@@H](OC(C)=O)[C@H]4C(C[C@H]1C)OC2[C@@H]34 (stereo partly drawn) | inactive | inactive | inactive | inactive | inactive | inactive | inactive | 16 µg/mL (≈ 40.6 µM) | inactive | inactive | inactive | inactive |  | 
8 | CCCC(=O)O[C@]1(C)CCC2[C@@H]3C4OC(C/C(C)=C\CC[C@]4(C)OC(=O)[C@@H]2C)[C@@H]31 (stereo partly drawn) [BRIARELLIN R] | 91% |  |  | inactive | inactive |  |  | 15 µg/mL (≈ 37.1 µM) | inactive | inactive | inactive |  | 8.9 µg/mL (≈ 22 µM) | 
9 | C=C1CC2OC3[C@H]4C(C[C@@H](C)[C@@H](OC(C)=O)[C@@H]24)[C@@H](C)CO[C@@]3(C)CC[C@H]1OO (stereo partly drawn) | inactive | inactive | inactive | inactive | inactive | inactive | inactive | 13 µg/mL (≈ 33 µM) | inactive | inactive | inactive | inactive |  | 
10 | CC(=O)O[C@H]1[C@H]2C3/C=C(/C)[C@H](O)CC[C@]4(C)OC[C@H](C)C(C[C@H]1C)[C@@H]2C4O3 (stereo partly drawn) | inactive | inactive | inactive | inactive | inactive | inactive | inactive | 18 µg/mL (≈ 47.6 µM) | inactive | inactive | inactive | inactive |  | 
11 | CC(=O)O[C@H]1[C@H]2C3C[C@](C)(O)C(=O)CC[C@]4(C)OC[C@H](C)C(C[C@H]1C)[C@@H]2C4O3 (stereo partly drawn) |  |  |  |  |  |  |  | 18 µg/mL (≈ 45.6 µM) |  |  |  |  |  | 
12 | C=C1CC2OC3[C@H]4C(C[C@@H](C)[C@@H](OC(C)=O)[C@@H]24)[C@@H](C)CO[C@@]3(C)CCC1=O (stereo partly drawn) | inactive | inactive | inactive | inactive | inactive | inactive | inactive | 9 µg/mL (≈ 23.9 µM) | inactive | inactive | inactive | inactive |  | 0.25 µg/mL (≈ 0.664 µM)
